According to patent publication US9585867B2, “Cannabinod formulation for the sedation of a human or animal” (priority 2015, dated 2017):
Read-outs that look alike come from different tables or passages of the source.

How the values were obtained:
cannabinoid receptor = details: cited from earlier work
[1] = Inventor experimentation: intermuscular injection of tetrahydrocannabinol, incapacitation; type: in vivo, human; details: intermuscular injection of 5.0 mg; overall healthy, 100 kg person
Protocol: If it is unnecessary to “immediately”, or to “near-immediately”, incapacitate a recipient, the inventive formulation may strictly consist of cannabinoids such as tetrahydrocannabinol. During instant inventor experimentation, an intermuscular injection of 5.0 mg of tetrahydrocannabinol rendered an overall healthy, 100 kg person, fully incapacitated within 10-30 seconds, with its effects lasting approximately four-to-six hours.

monkeys [2] = experiment: Repeated intravenous study with emulsified tetrahydrocannabinol in monkeys; type: in vivo; details: near-pure tetrahydrocannabinol
Protocol: Subsequently, intravenous studies were repeated using tetrahydrocannabinol emulsified in a sesame oil, polysorbate 80, or saline vehicles at 15 mg/ml or 40 mg/ml. The emulsions were administered at a uniform rate of 2 ml/15 sec. Doses administered were 1, 4, 16, 64, 92, 128, 192 and 256 mg/kg. All monkeys injected with 92 mg/kg or less survived and completely recovered from all effects within two to four days. An analogous intravenous dosage for a 100 kg human would be 9,200 mg (9.2 g) of near-pure tetrahydrocannabinol. All monkeys injected with 128 mg/kg or more succumb within thirty minutes for all but one subject, which took one-hundred-and-eighty minutes to expire. An analogous lethal intravenous dosage for a 100 kg human would be 12,800 mg (12.8 g) of near-pure tetrahydrocannabinol.
Histopathological changes found in the lungs of the deceased monkeys were like those described after the previous intravenous experiment. […] Behavioral changes preceding death were salivation, prostration, coma, and tremors.
Behavioral and physiological changes described clinically in the surviving monkeys followed a consistent developmental sequence and were roughly dose related in severity and duration. Onset was fifteen minutes following injection and duration was up to forty-eight hours. Huddled posture and lethargy were the most persistent changes. Constipation, anorexia, and weight loss were noted. […]

mice = details: cited from earlier work
rats = details: cited from earlier work
laboratory animals = details: cited from earlier work
dogs = details: cited from earlier work
monkeys [3] = details: cited from earlier work
monkeys [4] = details: cited from earlier work; remark: listed apart in the source
dog = details: cited from earlier work
monkey = details: cited from earlier work
[5] = intravenous emulsion 15 or 40 mg/ml, 2 ml/15 sec

In the case of `CCCCCCC(C)(C)c1ccc([C@@H]2C[C@H](O)CC[C@H]2CCCO)c(O)c1` [CP-55940], the “potency relative to phyto-cannabinoid THC” value (cannabinoid receptor) is listed as “many times more potent”.

In the case of `CCCCCCC(C)(C)c1cc(O)c2c(c1)OC(C)(C)[C@@H]1CC=C(CO)C[C@@H]21` [HU-210], the “potency relative to phyto-cannabinoid THC” value (cannabinoid receptor) is given as “about 100 times”.

With `CCCCCc1cc(O)c2c(c1)OC(C)(C)[C@@H]1CCC(C)=C[C@@H]21` [tetrahydrocannabinol] the duration of effects [1] was “four-to-six”, the “time to full incapacitation” value [1] was 10 to 30 s and the “analogous intravenous dosage for a 100 kg human (survived dose)” value (monkeys [2]; extrapolated from 92 mg/kg in monkeys) was 9,200 mg. The “analogous lethal intravenous dosage for a 100 kg human” value (monkeys [2]; extrapolated from 128 mg/kg in monkeys) was 12,800 mg, the LD50 dose (mice) was 28.6 mg per 42.47 kg of body weight and the LD50 dose (rats) was 28.6 mg per 42.47 kg of body weight. For the same compound, the “time to lethality after intravenous injection” value (shortened to “time to lethality”) (rats; intravenous) was “within minutes”, the “lowest intravenous dosage which causes death” value (laboratory animals; intravenous) was “approximately 1000 mg per kg of body weight” and the “typical lethal oral dosage” value (laboratory animals; oral) was 225-450 mg per kg of body weight. For the same compound, the “time to complete recovery of survivors” value (dogs; dogs that survived the intravenous injection) was “five to nine”, the “minimal lethal intravenous dose” value (dogs; dogs, depending upon concentration) was 25 to 99 mg/kg and the “time to lethality” value (dogs; dogs, intravenous) was “within minutes”. For the same compound, the “acute one dose LD50” value (dogs; intravenous, dogs) was 100 mg/kg, the “acute one dose LD50” value (monkeys [3]; intravenous, monkeys, depending on concentration of the solution) was 15.6 to 62.5 mg/kg and the “time to complete recovery of survivors” value (monkeys [3]; monkeys that survived the intravenous injection) was “five to nine”. For the same compound, the “minimal lethal intravenous dose” value (monkeys [3]; monkeys, depending upon concentration) was 3.9 to 15.5 mg/kg, the “time to lethality” value (monkeys [3]; monkeys, intravenous) was “within minutes” and the fatalities (monkeys [4]; 92 mg/kg intravenously, monkeys) was “no fatalities”. The time to death (monkeys [4]; 128 mg/kg or more, the one remaining subject) was “one-hundred-and-eighty”, the “dose at which all monkeys succumb” value (monkeys [4]; [5]) was ≥ 128 mg/kg and the “dose at which all monkeys survived” value (monkeys [4]; [5]) was ≤ 92 mg/kg. For the same compound, the “time to complete recovery from all effects” value (monkeys [4]; monkeys injected with 92 mg/kg or less) was “two to four”, the time to death (monkeys [4]; monkeys injected with 128 mg/kg or more, all but one subject) was “thirty” and the “time to severe respiratory depression and bradycardia after injection” value (monkeys [4]; monkeys that died) was “five”. For the same compound, the “duration of behavioral and physiological changes” value (monkeys [4]; surviving monkeys) was “up to forty-eight”, the “onset of behavioral and physiological changes following injection” value (monkeys [4]; surviving monkeys) was “fifteen” and the “time of maximal hypothermia, bradycardia and decreased respiratory rate post injection” value (monkeys [4]; surviving monkeys) was “two-to-six”. The nonlethal oral consumption (dog) was 3 g/kg and the nonlethal oral consumption (monkey) was 3 g/kg.
